The values that follow come from patent publication US20130295579A1, “METHOD FOR PREPARING INDUCED PLURIPOTENT STEM CELLS AND MEDIUM USED FOR PREPARING INDUCED PLURIPOTENT STEM CELLS” (SHANGHAI INSTITUTE OF MATERIA MEDICA, CHINESE ACADEMY OF …, priority 2010, published 2013).

Entries after “also recorded” stand apart in the source; their conditions may differ.

What all share (type): cell-based
Experiment [1] has as its system OG2 mouse embryonic fibroblasts. Briefly: Four-factor iPS induction, percentage of Oct-GFP+ cells by flow cytometry. The note with it: four factors, 10 mM LiCl, day 12, three independent experiments. As for the experimental part: (§1) Retrovirus were produced by transfecting plat-E cells with pMXs retroviral vectors containing the cDNAs of mouse Oct4, Sox2, Klf4 and c-Myc (purchased from Addgene) using Fugene HD (Roche) according to the manufacturer's protocol. After 48 hours, virus-containing supernatants were collected and filtered. The filtered supernatant was supplemented with 8 mg/L of polybrene, and then was used to infect mouse embryonic fibroblasts. The day when adding virus containing supernatants is counted as “day 0”. […]
(§2) The main method for calculating the reprogramming efficiency is the counting of the Oct-GFP^+ cells, including: 1. Using flow cytometry to determine the percentage of Oct-GFP^+ cells in the cell culture, which were infected with four factors for 10 to 12 days or with three factors for 14 to 16 days, or 2. directly counting the Oct-GFP^+ colonies in the wells by using fluorescence microscope.
(§3) a. […] The day of viral infection was counted as “day 0”. […]
c. Using the method described in step a, on day 12, cells were trypsinized and percentage of Oct-GFP^+ cells was determined by using flow cytometry. […]
(Flow cytometry measures light scatter and fluorescence of single cells or particles in a stream.)

For experiment [2] the test system is unchanged. As to the kind of experiment: Three-factor (Oct4, Sox2, Klf4) iPS induction, counting of Oct-GFP+ colonies by fluorescence microscope. Particulars: three factors, day 14. As for the experimental part:
as §1, §2, §3
b. Using the method described in step a, from day 12, Oct-GFP^+ colonies were observed and counted under an inverted fluorescence microscope every day, and pictures were also taken with a fluorescence microscope.

The test system is the same in experiment [3]. Briefly: Three-factor iPS induction, percentage of Oct-GFP+ cells by flow cytometry. The note with it: three factors, 10 mM LiCl, day 16. The method, then: as §1, §2, §3
c. Using the method described in step a, on day 16, cells were trypsinized and the percentage of Oct-GFP^+ cells was determined by using flow cytometry.

For experiment [4] the test system is unchanged. As to the kind of experiment: Four-factor (Oct4, Sox2, Klf4, c-Myc) iPS induction, counting of Oct-GFP+ colonies by fluorescence microscope. The note with it: four factors; for number of Oct-GFP+ colonies per well: 96-well plate. The method, then: Retrovirus were produced by transfecting plat-E cells with pMXs retroviral vectors containing the cDNAs of mouse Oct4, Sox2, Klf4 and c-Myc (purchased from Addgene) using Fugene HD (Roche) according to the manufacturer's protocol. After 48 hours, virus-containing supernatants were collected and filtered. The filtered supernatant was supplemented with 8 mg/L of polybrene, and then was used to infect mouse embryonic fibroblasts. The day when adding virus containing supernatants is counted as “day 0”. The fibroblasts infected with the virus were cultured in the mES medium, and iPS colonies were picked from day 14 to the day 18 after infection (four-factor infection experiment) or from day 20 to day 24 after infection (three-factor infection experiment), based on the expression of Oct-GFP and the typical morphology of stem cells.
as §2
a. Same volumes of the viruses carrying Oct4, Sox2, Klf4 or c-Myc were mixed and added to a total of 180,000 OG2 mouse embryonic fibroblasts in one well of a 6-well plate and cells were cultured in DMEM medium supplemented with 10% fetal bovine serum at 37° C. and 5% CO2. The day of viral infection was counted as “day 0”. On day 2, cells were trypsinized and resuspended in the mES medium, and then seeded at a density of 5,000 cells per well onto a 96-well plate pre-seeded with irradiated mouse embryonic fibroblast feeders. The mES medium supplemented with different concentrations of LiCl (0.6 mM, 1.2 mM, 2.5 mM, 5 mM, 10 mM, 20 mM and 40 mM) were used from day 3. On day 6, the medium was replaced with KSR medium supplemented with different concentrations of LiCl (0.6 mM, 1.2 mM, 2.5 mM, 5 mM, 10 mM, 20 mM and 40 mM). On day 8, the medium was replaced with KSR medium again.
b. Using the method described in step a, from day 8, Oct-GFP^+ colonies were observed and counted under an inverted fluorescence microscope every day, and pictures were also taken with a fluorescence microscope. FIG. 2A was representative images of wells in the 96-well plate on day 10, in which there were more GFP^+ colonies in 10 mM LiCl treated well than in untreated well. […] On day 8, GFP^+ colony could barely be observed in control wells, while approximately 10 GFP^+ colonies could be observed in 10 mM LiCl treated wells. On day 10, approximately 20 GFP^+ colonies could be observed in 10 mM LiCl treated wells, with induction efficiency 5 to 6 times of that of control wells'.

As for `[Cl-].[Li+]` [LiCl, lithium chloride], the “induction efficiency increase versus wells without treatment (flow cytometry)” value in experiment [1] is given as 5 to 6 times. Further, the “induction efficiency of iPS cells versus control groups (colony count)” value in experiment [2] (5 mM or 10 mM LiCl) is on record as “enhanced; also recorded: significantly improved”. For the same compound, the “induction efficiency increase versus control groups (colony count)” value in experiment [2] (10 mM LiCl) is “approximately 7 times”. For the same compound, the “increase of percentage of Oct-GFP+ cells versus control groups” value in experiment [3] was “approximately 60 times”. Moreover, the “percentage of Oct-GFP+ cells” value in experiment [3] was 14.5%. The “number of Oct-GFP+ colonies per well” value in experiment [4] (10 mM LiCl, day 8 after infection) is reported as “approximately 10”; in experiment [4] (10 mM LiCl, day 10 after infection), “approximately 20”. In addition, in experiment [4] (10 mM LiCl, day 10), the “induction efficiency relative to control wells (colony count)” value is listed as 5 to 6 times. Moreover, the “most effective dose of LiCl (number of positive colonies)” value in experiment [4] (tested 0.6-40 mM) is given as 10 mM.
